From patent US12649750B2, “Macrocyclic compounds, compositions, and methods of using thereof” (Sionna Therapeutics Inc., priority 2022, dated 2026)

Columns and labels:
[1] = biological target: T1, NBD1 (Homo sapiens, UniProt P13569); assay: Aggregation analysis using differential static light scattering (DSLS), thermal stability of NBD1 (ΔTagg); format: binding; conditions: ΔTagg versus DMSO control, NBD1 0.2 mg/ml
T1 construct: Purified recombinant NBD1 was produced using previously described methods; made in house
T1 sequence (P13569 423-646 limits assumed): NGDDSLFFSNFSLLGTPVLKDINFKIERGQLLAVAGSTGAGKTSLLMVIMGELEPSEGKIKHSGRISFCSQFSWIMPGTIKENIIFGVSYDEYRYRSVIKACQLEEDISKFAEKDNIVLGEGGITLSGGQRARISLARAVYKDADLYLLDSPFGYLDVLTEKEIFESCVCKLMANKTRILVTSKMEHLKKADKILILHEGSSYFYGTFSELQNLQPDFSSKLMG
Method in brief: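 Purified recombinant NBD1 at 0.2 mg/ml in 50 mM Tris-HCl, 150 mM NaCl, 5 mM MgCl2, 2 mM ATP, 2 mM DTT, pH 7.6, 1% glycerol, with compound, heated 1° C./min to 70° C. under light-scattering monitoring. Tagg taken at curve inflection; ΔTagg is compound Tagg minus mean DMSO-control Tagg, binned A (≤5° C.), B (>5-≤10° C.), C (>10-≤25° C.).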

[2] = biological target: T2, CFTR (Homo sapiens, UniProt P13569, DEL508-508); assay: TECC24 AUC fold over DMSO @10 μM, CFTR-mediated transepithelial chloride transport in CF-HBE cells; format: cell-based; conditions: test agent AUC divided by DMSO vehicle AUC, primary CF-HBE cells, ΔF508 homozygous donor, 48 hours incubation
T2 construct: Primary human bronchial epithelial cells from a ΔF508 homozygous CF donor; host or cells: primary human bronchial epithelial cells (CF-HBE), ΔF508 homozygous donor
T2 sequence (P13569 with tags, fused parts or gaps DEL508-508): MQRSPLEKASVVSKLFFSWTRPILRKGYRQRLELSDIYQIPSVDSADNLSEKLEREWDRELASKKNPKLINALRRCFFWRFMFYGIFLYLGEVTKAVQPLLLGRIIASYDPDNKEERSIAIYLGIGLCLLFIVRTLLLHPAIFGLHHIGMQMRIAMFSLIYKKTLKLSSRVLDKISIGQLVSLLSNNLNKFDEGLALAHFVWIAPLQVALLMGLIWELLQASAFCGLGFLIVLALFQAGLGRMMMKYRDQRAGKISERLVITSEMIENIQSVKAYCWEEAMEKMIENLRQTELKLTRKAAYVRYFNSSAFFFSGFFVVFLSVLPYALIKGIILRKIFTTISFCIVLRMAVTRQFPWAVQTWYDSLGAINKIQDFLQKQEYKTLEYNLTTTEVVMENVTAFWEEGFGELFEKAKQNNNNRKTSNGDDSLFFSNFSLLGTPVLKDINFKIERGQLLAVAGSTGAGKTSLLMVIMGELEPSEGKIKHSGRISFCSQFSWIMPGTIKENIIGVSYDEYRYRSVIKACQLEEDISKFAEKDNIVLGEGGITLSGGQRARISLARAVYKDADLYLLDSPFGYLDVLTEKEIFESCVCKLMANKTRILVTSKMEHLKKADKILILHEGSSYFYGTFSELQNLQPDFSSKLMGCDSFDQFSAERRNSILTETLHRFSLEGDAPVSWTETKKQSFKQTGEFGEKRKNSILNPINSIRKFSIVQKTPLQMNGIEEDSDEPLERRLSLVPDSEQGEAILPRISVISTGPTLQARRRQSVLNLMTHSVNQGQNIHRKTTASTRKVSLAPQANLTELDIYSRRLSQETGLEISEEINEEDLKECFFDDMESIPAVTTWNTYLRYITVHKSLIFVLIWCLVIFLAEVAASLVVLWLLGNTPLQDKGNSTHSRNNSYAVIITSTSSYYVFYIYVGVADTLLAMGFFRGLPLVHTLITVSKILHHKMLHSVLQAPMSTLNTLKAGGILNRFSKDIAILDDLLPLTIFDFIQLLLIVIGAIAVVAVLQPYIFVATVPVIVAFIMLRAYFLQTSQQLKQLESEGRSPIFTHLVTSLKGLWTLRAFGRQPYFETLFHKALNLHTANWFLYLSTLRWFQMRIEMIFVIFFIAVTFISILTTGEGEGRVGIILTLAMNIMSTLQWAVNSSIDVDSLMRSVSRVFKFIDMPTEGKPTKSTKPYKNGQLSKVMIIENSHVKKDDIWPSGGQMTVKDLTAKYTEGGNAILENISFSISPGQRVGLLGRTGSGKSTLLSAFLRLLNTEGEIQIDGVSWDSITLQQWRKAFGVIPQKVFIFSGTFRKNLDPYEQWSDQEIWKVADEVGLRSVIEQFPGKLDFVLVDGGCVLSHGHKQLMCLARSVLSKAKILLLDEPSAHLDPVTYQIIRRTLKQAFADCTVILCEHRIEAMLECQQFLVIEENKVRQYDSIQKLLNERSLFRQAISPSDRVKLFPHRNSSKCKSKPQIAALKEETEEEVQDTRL
Method in brief: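 Primary ΔF508-homozygous CF bronchial epithelial cells on inserts were incubated 48 h at 36.5 °C with compound in IL-13-containing medium. VT and TEER were then recorded in current-clamp mode (pH 7.4 HEPES bath) with benzamil 10 μM, forskolin 10 μM, then CFTR inhibitor-172 20 μM. The IEQ AUC between forskolin and inhibitor was divided by vehicle AUC.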

Compound | DSLS 3D (100 μM ΔT) [1] | TECC (AUC, 10 μM) [2]
Cn1nc2nc1-c1cc(ccc1F)Oc1c(F)cc3[nH]ccc3c1CCS(=O)(=O)CC(F)(F)C(C)(C)CCC2(C)c1cccc(CCC(=O)O)c1 (single isomer, unassigned) [Compound 102A, 3-[3-[10,10,22,28-tetrafluoro-3,6,9,9-tetramethyl-12,12-dioxo-24-oxa-12lambda6-thia-3,4,19,30-tetrazapentacyclo[23.3.1.12,5.015,23.016,20]-triaconta-1(29),2(30),4,15,17,20,22,25,27-nonaen-6-yl]phenyl]propanoic Acid] | A (an ΔTagg value less than or equal to 5 °C is marked “A”) | A (a TECC value less than 12 is marked “A”)
Cn1nc2nc1-c1cc(ccc1F)Oc1c(F)cc3[nH]ccc3c1CCS(=O)(=O)CC(C)(C)OCCC2(C)c1cccc(CCC(=O)O)c1 (single isomer, unassigned) [Compound 73A, 3-[3-(22,28-difluoro-3,6,10,10-tetramethyl-12,12-dioxo-9,24-dioxa-12lambda6-thia-3,4,19,30-tetrazapentacyclo-[23.3.1.12,5.015,23.016,20]triaconta-1(29),2(30),4,15,17,20,22,25,27-nonaen-6-yl)phenyl]-propanoic Acid] | C (a value greater than 10 °C and less than or equal to 25 °C is marked “C”) | A (a TECC value less than 12 is marked “A”)
C[C@H](Cc1cccc([C@@]2(C)CCCC(C)(C)CS(=O)(=O)CCc3c(c(F)c(F)c4[nH]ccc34)Sc3ccnc(c3)-c3nc2nn3C)c1)C(=O)O [Compound 270, (2R)-3-[3-[(6R)-21,22-difluoro-3,6,10,10-tetramethyl-12,12-dioxo-12λ6,24-dithia-3,4,19,28,30-pentazapentacyclo[23.3.1.12,5.015,23.016,20]triaconta-1(29),2(30),4,15,17,20,22,25,27-nonaen-6-yl]phenyl]-2-methyl-propanoic Acid] | C (a value greater than 10 °C and less than or equal to 25 °C is marked “C”) | B (a value between 12-20 is marked “B”)
C[C@@H](Cc1cccc(C2CCCC(C)(C)CS(=O)(=O)CCc3c(c(F)cc4[nH]ccc34)C(=O)c3cccc(c3)-c3ccn2n3)c1)C(=O)O (stereo partly drawn) [Compound 163, (2S)-3-[3-(22-Fluoro-10,10-dimethyl-12,12,24-trioxo-12λ6-thia-5,19,30-triazapentacyclo[23.3.1.12,5.015,23.016,20]triaconta-1(29),2(30),3,15,17,20,22,25,27-nonaen-6-yl)phenyl]-2-methyl-propanoic Acid] | A (an ΔTagg value less than or equal to 5 °C is marked “A”) | A (a TECC value less than 12 is marked “A”)
C[C@H](Cc1cccc(C2(C)CCCC(C)(C)CS(=O)(=O)CCc3c(c(F)cc4[nH]ccc34)Oc3ccc(F)c(c3)-c3ccn2n3)c1)C(=O)O (mixture of isomers) [Compound 230, (2R)-3-[3-(22,28-difluoro-6,10,10-trimethyl-12,12-dioxo-24-oxa-12λ6-thia-5,19,30-triazapentacyclo[23.3.1.12,5.015,23.016,20]triaconta-1(29),2(30),3,15,17,20,22,25,27-nonaen-6-yl)phenyl]-2-methyl-propanoic Acid] | C (a value greater than 10 °C and less than or equal to 25 °C is marked “C”) | C (a value between 20 and 80 is marked “C”)
O=C(O)CCc1cccc(C2NC(=O)CCCS(=O)(=O)CCc3c(c(F)cc4[nH]ccc34)Oc3ccc(F)c(c3)-c3ncc2[nH]3)c1 (single isomer, unassigned) [Compound 80, 3-[3-[22,28-difluoro-8,12,12-trioxo-24-oxa-12lambda6-thia-3,7,19,30-tetrazapentacyclo[23.3.1.12,5.015,23.016,20]triaconta-1(29),2,4,15,17,20,22,25,27-nonaen-6-yl]phenyl]propanoic acid] | B (a value above 5 °C and less than or equal to 10 °C is marked “B”) | A (a TECC value less than 12 is marked “A”)
C[C@H](Cc1cccc(C2(C)CCCC(C)(C)CS(=O)(=O)CCc3c(c(F)cc4[nH]ccc34)Cc3ccc(F)c(c3)-c3nc2nn3C)c1)C(=O)O (single isomer, unassigned) [Compound 169B] | A (an ΔTagg value less than or equal to 5 °C is marked “A”) | A (a TECC value less than 12 is marked “A”)
C[C@H](Cc1cccc(C2(C)CCCC(C)(C)CS(=O)(=O)CCc3c(c(F)cc4[nH]ccc34)[S+]([O-])c3ccc(F)c(c3)-c3nc2nn3C)n1)C(=O)O (single isomer, unassigned) [Compound 181C] | A (an ΔTagg value less than or equal to 5 °C is marked “A”) | A (a TECC value less than 12 is marked “A”)
CCn1nc2nc1-c1cc(ccc1F)Oc1c(F)cc3[nH]ccc3c1CCS(=O)(=O)CC(C)(C)CCCC2(C)c1cccc(CCC(=O)O)c1 (single isomer, unassigned) [Compound 91A, 3-[3-(3-ethyl-22,28-difluoro-6,10,10-trimethyl-12,12-dioxo-24-oxa-12lambda6-thia-3,4,19,30-tetrazapentacyclo[23.3.1.12,5.015,23.016,20]triaconta-1(29),2(30),4,15,17,20,22,25,27-nonaen-6-yl)phenyl]propanoic Acid] | C (a value greater than 10 °C and less than or equal to 25 °C is marked “C”) | A (a TECC value less than 12 is marked “A”)
[2H]C([2H])([2H])C1(c2cccc(CC(C)C(=O)O)c2)COCC(C)(C)CS(=O)(=O)CCc2c(c(F)cc3[nH]ccc23)Oc2ccc(F)c(c2)-c2nc1nn2C (single isomer, unassigned) [Compound 8B, 3-[3-[22,28-difluoro-3,10,10-trimethyl-12,12-dioxo-6-(trideuteriomethyl)-8,24-dioxa-12lambda6-thia-3,4,19,30-tetrazapentacyclo[23.3.1.12,5.015,23.016,20]triaconta-1(29),2(30),4,15,17,20,22,25,27-nonaen-6-yl]phenyl]-2-methyl-propanoic Acid] | A (an ΔTagg value less than or equal to 5 °C is marked “A”) | A (a TECC value less than 12 is marked “A”)
Cn1nc2nc1-c1cc(ccc1F)Oc1c(F)cc3[nH]ccc3c1CCS(=O)(=O)CCC(F)(F)CCC2(C)c1cccc(CCC(=O)O)c1 (single isomer, unassigned) [Compound 2B, 3-[3-(9,9,22,28-Tetrafluoro-3,6-dimethyl-12,12-dioxo-24-oxa-12λ^6-thia-3,4,19,30-tetrazapentacyclo[23.3.1.1^2,5.0^15,23.0^16,20]triaconta-1(29),2(30),4,15,17,20,22,25,27-nonaen-6-yl)phenyl]propanoic Acid] | A (an ΔTagg value less than or equal to 5 °C is marked “A”) | A (a TECC value less than 12 is marked “A”)
C[C@@H](Cc1cccc(C2(C)CCCC(C)(C)CS(=O)(=O)CCc3c(c(F)cc4[nH]ccc34)Oc3ccc(F)c(c3)-c3nc2nn3C)c1)C(=O)OCc1coc(=O)o1 (single isomer, unassigned) [Compound 144] | C (a value greater than 10 °C and less than or equal to 25 °C is marked “C”) | B (a value between 12-20 is marked “B”)
